# Test results as given in patent publication US20260258083A1, “T Cell Engager Masking Molecules” (AMGEN INC., priority 2023, published 2026).
# Where a SMILES comes first, the peptide text is derived from it. Where no end group is shown, it is not given here. Side-chain parts run from the residue outwards. [ ]: non-standard residue; d: D form. maleimide = maleimide-thiosuccinimide linker; pGlu = O=C1CC[C@@H](C(=O)O)N1; P(Dap) = not defined here; PEG = not defined here
# Legend:
# [1] = test system: FLT3×CD3 TCE (SEQ ID NO: 93); assay: Association kinetics by KinExA (Table 5); assay type: binding; details: for koff: KinExA, FLT3×CD3 TCE; for fold-koff / fold-kon: relative to the parent CD3ε epitope peptide
# Experimental: (§1) • 1. Preparation of NHS-activated sepharose fast-flow beads: • 2. Fast flow sepharose suspension in 100% IPA, washed twice with milliQ H20, mild centrifugation to pool beads in between wash steps. • 3. Equilibrated in 0.15 M NaBO3, pH=8.5 buffer • 4. Added 80 mM PDEA to activate the resin for thiol exchange, 10 mins, r.t. • 5. Equilibrated resin with Hepes Buffered Saline-P (0.01 M HEPES pH 7.4, 0.15 M NaCl, 0.005% v/v Surfactant P2), pH 7.4 binding buffer • 6. Added 30 μg/mL of binding peptide, […] (SEQ ID NO; 297) or pGlu-[…] (SEQ ID NO: 300), reaction for 1 hr to functionalize resin. • 7. Quench with 10 mM L-Cys for 1 hour. • 8. Constant Binding Partner was FLT3×CD3 TCE (SEQ ID NO: 93), MW 105720, 3.2 mg/mL 31.21 uM was diluted to 333 pM and the pGlu-[…] peptide or pGlu-[…]-PEG (Pep-PEG v2) were titrated from 1 uM or 400 nM down to 2.3 pM concentrations relative to effective peptide molarity.
# Association Kinetics by KinExA
# [2] = test system: anti-CD3ε paratope of a CD3ε binding domain of a TCE; assay: Affinity class of the binding peptide of the masking molecule
# Excerpt: The exact value may vary with the respective TCE. However, the […]
# [3] = test system: STEAP1×CD3e heterodimeric TCE; assay: T cell dependent cellular cytotoxicity (TDCC) assay, inhibition of TCE cytotoxicity; assay type: cell-based; details: STEAP1×CD3, CLDN6×CD3 and DLL3×CD3 TCE; PBMC E:T 10:1, 48 hours
# Experimental: Example 12: In Vitro Cytotoxicity and Cytokine Release Inhibition by Binding Peptides
# In vitro potency of CD3e pepPEG was indirectly assessed by measuring in vitro activity of T cell engager (TCE) using T cell dependent cellular cytotoxicity (TDCC) assay. […] Cytokine production was assessed in supernatants from TDCC assays using electro-chemiluminescence assays (MesoScale Discovery).
# [4] = test system: CDH3×MSLN dual targeting TCE with two CD3e binders (SEQ ID NO 255); assay: TDCC assay, inhibition of cytotoxicity (Example 15); assay type: cell-based; details: same peptide concentration; PBMC E:T 10:1, 48 or 72 hours
# Experimental: Example 15: TCE Masking Molecule Inhibition of Cytotoxicity and Cytokine Release of Representative CDH3×MSLN Dual Targeting TCE with Two CD3e Binders (SEQ ID NO 255)
# In vitro potency of CD3e pepPEG was indirectly assessed by measuring in vitro activity of T cell engager (TCE) using T cell dependent cellular cytotoxicity (TDCC) assay. Either 100 pM or 300 pM of TCE was mixed with increasing concentrations of CD3e pepPEG before the mixture is treated to cells. Peripheral blood mononuclear cells (PBMCs) as effector cells were co-cultured with tumor target cells at an effector cell-to-target cell ratio of 10:1 in the presence of mixture of TCE and CD3e pepPEG for 48 hours or 72 hours at 37° C. Cytotoxicity of TCE was assessed by Steady-Glo (Promega) for luciferase-tagged target cells and CellTiter-Glo (Promega) for non-luciferase-tagged target cells after plates were washed to eliminate T cells. Specific cytotoxicity curves and EC50 values were derived using Prism 7.04 (GraphPad). Cytokine production was assessed in supernatants from TDCC assays using electro-chemiluminescence assays (MesoScale Discovery).
# [5] = Mouse pharmacokinetic study, IV (Example 2); details: BL/6, mouse, plasma, iv, 1 mg/kg
# Experimental: Example 2: Mouse Pharmacokinetic Study to Evaluate In Vivo PK
# The 4-arm 20 kDa PepPOL conjugate was dosed by IV administration to BL/6 mice at 0.82 or 8.2 mg/kg dose levels. […] The PK profiles for each peptide were evaluated by quantifying plasma concentrations of total intact peptide material over time (see methods).
# [6] = molecular target: FLT3×CD3 TCE (SEQ ID NO: 93); assay: Equilibrium binding affinity measurement by KinExA (Table 5); details: for Kd: KinExA, FLT3×CD3 TCE as constant binding partner; for fold-Kd: affinity gain relative to the parent CD3ε epitope peptide
# Experimental: Equilibrium Binding Affinity Measurement by KinExA
# as §1
# [7] = test system: CDH3-CD3-MSLN-CD3 TCE (SEQ ID NO 255); assay: SPR assay of immobilized peptides binding with TCE; details: bivalent analyte model
# Experimental: (§2) Example 14: SPR Assay of Immobilized Peptides Binding with TCE
# (§3) A cytiva CM5 chip was first functionalized with PDEA (2-(2pyridinyldithio)ethaneamine) under standard ((1-ethyl-3-(3-dimethylaminopropyl)carbodiimide)/(N-hydroxysuccinimide) EDC/NHS coupling conditions where the PDEA is dissolved to 20 mM and 1 M NaCl in 0.1 M sodium acetate pH 4.3. Binding peptides were dissolved to 50- or 100-ug/mL respectively in PBST, pH 6.5, and coupling times were optimized to yield the desired surface density.
# [8] = test system: CLDN6xCD3 TCE SEQ ID NO 340; assay: SPR assay of immobilized peptides binding with TCE; details: immobilized peptide, Kinetic 1:1 Binding
# Experimental: as §2, §3
# [9] = test system: DLL3xCD3 TCE SEQ ID NO 104; assay: SPR assay of immobilized peptides binding with TCE; details: immobilized peptide, Kinetic 1:1 Binding
# Experimental: as §2, §3
# [10] = test system: FLT3xCD3 TCE SEQ ID NO 93; assay: SPR assay of immobilized peptides binding with TCE; details: immobilized peptide, Kinetic 1:1 Binding
# Experimental: as §2, §3
# [11] = test system: Steap 1xCD3 TCE SEQ ID NO 373 + 374 + 375; assay: SPR assay of immobilized peptides binding with TCE; details: immobilized peptide, Kinetic 1:1 Binding
# Experimental: as §2, §3
# [12] = masking molecules of Example 12
# [13] = masking molecules tested with respect to TCE of SEQ ID NO 255 (Table 20)
# Sequence of FLT3×CD3 TCE (SEQ ID NO: 93) (as listed by the source): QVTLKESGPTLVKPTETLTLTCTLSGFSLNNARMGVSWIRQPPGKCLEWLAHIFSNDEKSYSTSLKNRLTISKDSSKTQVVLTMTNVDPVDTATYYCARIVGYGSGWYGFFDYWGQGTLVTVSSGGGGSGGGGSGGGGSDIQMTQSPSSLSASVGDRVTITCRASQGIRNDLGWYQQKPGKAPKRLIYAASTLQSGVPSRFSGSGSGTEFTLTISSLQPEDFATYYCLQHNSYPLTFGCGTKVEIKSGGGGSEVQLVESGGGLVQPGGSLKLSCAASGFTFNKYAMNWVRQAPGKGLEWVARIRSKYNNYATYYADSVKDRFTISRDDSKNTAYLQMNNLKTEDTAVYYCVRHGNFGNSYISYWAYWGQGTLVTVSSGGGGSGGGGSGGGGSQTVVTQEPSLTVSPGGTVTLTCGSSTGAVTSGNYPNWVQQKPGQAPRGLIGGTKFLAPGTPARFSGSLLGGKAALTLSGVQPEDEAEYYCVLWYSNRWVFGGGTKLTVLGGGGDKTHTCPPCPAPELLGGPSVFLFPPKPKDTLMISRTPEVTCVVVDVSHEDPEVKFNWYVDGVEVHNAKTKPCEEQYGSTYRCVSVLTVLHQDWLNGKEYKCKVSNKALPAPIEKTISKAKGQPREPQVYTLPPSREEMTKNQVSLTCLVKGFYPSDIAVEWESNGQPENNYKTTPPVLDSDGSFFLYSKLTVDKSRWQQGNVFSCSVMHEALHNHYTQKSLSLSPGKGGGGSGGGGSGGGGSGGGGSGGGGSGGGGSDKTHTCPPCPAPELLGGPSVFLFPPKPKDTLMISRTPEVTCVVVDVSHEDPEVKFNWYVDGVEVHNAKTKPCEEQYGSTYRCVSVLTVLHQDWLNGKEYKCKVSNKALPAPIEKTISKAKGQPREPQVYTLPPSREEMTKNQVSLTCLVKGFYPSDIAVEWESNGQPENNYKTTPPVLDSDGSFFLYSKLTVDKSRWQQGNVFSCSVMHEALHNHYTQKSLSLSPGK
# Sequence of CDH3×MSLN dual targeting TCE with two CD3e binders (SEQ ID NO 255) (as listed by the source): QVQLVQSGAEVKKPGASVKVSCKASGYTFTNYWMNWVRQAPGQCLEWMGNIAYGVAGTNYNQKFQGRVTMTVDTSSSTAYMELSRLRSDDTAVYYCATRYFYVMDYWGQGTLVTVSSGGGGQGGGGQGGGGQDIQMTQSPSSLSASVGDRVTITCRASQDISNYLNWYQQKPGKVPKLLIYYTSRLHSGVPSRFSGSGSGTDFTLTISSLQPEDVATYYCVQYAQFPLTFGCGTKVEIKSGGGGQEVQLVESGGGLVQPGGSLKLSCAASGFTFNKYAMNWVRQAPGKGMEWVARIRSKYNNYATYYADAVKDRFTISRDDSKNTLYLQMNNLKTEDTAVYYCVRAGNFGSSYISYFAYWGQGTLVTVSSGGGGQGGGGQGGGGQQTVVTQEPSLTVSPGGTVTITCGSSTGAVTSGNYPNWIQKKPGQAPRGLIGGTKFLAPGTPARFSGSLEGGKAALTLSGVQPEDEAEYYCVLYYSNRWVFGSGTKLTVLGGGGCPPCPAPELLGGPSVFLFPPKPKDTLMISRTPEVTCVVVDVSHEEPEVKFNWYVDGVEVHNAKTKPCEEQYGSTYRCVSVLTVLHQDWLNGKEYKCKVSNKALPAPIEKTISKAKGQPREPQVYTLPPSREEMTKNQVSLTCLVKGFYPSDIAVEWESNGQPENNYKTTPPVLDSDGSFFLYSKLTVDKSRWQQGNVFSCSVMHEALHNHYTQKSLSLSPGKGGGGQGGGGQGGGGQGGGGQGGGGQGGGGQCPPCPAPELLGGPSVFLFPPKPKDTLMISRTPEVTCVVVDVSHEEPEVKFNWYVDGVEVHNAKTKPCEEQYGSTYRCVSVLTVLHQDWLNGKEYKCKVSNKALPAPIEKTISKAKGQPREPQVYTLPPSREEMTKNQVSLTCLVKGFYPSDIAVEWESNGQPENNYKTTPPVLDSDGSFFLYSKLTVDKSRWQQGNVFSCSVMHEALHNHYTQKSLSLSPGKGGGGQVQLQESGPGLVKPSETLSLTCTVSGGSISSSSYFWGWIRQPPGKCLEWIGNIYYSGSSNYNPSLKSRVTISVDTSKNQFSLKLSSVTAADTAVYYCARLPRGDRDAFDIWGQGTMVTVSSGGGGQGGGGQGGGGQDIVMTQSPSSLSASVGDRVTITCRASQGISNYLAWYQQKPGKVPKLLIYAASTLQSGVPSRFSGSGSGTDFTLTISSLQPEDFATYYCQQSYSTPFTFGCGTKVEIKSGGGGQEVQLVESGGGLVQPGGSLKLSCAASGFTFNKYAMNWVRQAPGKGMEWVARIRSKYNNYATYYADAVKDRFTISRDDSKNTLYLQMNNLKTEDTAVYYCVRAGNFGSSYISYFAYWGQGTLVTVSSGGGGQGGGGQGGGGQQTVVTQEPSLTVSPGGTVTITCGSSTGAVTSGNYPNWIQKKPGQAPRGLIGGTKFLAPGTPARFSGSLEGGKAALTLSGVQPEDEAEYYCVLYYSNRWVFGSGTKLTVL
# Sequence of Steap 1xCD3 TCE SEQ ID NO 373 + 374 + 375 (as listed by the source): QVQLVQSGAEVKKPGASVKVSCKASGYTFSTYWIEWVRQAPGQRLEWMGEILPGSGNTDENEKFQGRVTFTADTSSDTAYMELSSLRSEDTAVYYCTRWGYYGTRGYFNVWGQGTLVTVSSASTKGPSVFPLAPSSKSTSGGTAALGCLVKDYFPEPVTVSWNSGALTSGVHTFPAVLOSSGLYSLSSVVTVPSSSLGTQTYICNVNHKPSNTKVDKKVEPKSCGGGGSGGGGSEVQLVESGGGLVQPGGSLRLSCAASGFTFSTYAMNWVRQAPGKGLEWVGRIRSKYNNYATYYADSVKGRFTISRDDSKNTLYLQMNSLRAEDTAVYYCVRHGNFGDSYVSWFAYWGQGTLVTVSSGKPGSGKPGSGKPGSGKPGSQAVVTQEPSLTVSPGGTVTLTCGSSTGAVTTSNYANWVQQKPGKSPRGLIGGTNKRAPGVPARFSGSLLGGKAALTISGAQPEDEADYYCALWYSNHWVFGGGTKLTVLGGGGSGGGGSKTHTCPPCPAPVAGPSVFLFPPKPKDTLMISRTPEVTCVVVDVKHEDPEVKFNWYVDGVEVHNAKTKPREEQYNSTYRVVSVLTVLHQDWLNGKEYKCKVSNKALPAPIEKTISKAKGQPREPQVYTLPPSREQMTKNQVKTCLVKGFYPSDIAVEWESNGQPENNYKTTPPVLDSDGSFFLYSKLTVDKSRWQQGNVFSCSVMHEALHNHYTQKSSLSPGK
# Sequence of Steap 1xCD3 TCE SEQ ID NO 373 + 374 + 375 (as listed by the source partner): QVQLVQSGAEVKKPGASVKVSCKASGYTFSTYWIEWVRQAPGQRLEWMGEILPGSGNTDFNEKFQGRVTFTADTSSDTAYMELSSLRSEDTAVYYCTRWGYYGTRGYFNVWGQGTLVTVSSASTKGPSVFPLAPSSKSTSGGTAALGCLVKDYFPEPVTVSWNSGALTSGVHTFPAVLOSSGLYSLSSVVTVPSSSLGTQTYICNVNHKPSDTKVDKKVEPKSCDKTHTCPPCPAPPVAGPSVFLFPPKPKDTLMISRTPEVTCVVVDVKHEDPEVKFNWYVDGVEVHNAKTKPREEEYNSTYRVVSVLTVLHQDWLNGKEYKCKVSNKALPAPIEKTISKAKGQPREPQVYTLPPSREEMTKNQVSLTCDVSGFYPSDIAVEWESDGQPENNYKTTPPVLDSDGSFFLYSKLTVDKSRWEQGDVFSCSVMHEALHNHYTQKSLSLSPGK
# Sequence of Steap 1xCD3 TCE SEQ ID NO 373 + 374 + 375 (as listed by the source partner): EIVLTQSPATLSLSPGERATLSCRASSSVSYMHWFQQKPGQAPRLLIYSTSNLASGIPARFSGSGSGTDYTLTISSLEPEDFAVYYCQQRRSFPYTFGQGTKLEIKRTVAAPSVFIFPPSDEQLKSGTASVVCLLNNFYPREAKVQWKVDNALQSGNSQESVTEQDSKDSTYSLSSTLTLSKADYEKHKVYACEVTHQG
# Sequence of CLDN6xCD3 TCE SEQ ID NO 340 (as listed by the source): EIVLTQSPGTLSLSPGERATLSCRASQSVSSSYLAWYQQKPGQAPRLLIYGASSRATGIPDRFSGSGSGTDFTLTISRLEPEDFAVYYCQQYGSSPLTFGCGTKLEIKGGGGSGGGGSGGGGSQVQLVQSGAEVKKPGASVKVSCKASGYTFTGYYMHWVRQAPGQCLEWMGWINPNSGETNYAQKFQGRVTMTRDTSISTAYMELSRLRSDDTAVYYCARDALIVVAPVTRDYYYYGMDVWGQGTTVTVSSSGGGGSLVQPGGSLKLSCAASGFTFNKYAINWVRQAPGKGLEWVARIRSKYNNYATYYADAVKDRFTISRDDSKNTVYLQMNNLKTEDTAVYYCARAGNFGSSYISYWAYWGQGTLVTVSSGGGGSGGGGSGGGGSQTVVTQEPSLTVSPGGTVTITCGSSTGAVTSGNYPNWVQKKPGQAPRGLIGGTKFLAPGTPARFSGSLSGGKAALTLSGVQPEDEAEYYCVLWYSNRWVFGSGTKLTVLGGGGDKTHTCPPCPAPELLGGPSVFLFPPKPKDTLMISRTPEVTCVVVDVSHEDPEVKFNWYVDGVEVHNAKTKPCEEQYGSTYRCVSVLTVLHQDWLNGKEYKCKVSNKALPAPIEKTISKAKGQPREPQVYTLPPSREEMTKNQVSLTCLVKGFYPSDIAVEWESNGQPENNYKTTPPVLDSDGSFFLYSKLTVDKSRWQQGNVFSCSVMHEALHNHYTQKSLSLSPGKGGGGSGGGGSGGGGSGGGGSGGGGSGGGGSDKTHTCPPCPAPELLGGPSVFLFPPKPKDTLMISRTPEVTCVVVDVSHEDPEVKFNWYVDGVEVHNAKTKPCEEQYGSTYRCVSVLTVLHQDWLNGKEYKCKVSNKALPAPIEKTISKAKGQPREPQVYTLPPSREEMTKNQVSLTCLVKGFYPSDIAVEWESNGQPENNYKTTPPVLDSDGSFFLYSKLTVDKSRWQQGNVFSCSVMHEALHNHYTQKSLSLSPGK
compound,measurement,setting,value
QDGNEEMGQDGNEEMG,koff,[1],0.00586 s⁻¹
pE-DGNEELKGC (PEG)-NH2 [79674-1] ([pGlu]DGNEELKGC(PEG)-NH2; not fully specified; printed as pE-DGNEELKGC (PEG)-NH2; reading uncertain; also: PEG type and size not given here),Affinity,[2]; [12],"High (an affinity indicated as Kd of about 0.05 to about 10 nM, typically 0.1 pM to 10 nM or 500 pM to 5 nM is considered of “high” affinity)"
same,Affinity,[2]; [13],"High (an affinity indicated as Kd of about 0.05 to about 10 nM, typically 0.1 pM to 10 nM or 500 pM to 5 nM is considered of “high” affinity)"
same,inhibition activity against TCE cytotoxicity (FIG. 15),[3],highest inhibition activity
pE-DGNEELKGK (mPEG)-OH ([pGlu]DGNEELKGK([acetamide‑thioether-mPEG 20 kDa])-OH) [73136-2],Affinity,[2]; [12],"High (an affinity indicated as Kd of about 0.05 to about 10 nM, typically 0.1 pM to 10 nM or 500 pM to 5 nM is considered of “high” affinity)"
same,Affinity,[2]; [13],"High (an affinity indicated as Kd of about 0.05 to about 10 nM, typically 0.1 pM to 10 nM or 500 pM to 5 nM is considered of “high” affinity)"
same,"inhibition of cytotoxicity, in vitro potency (FIG. 20)",[4],comparable results among each other
QDGNEEMGK,koff,[1],0.0179 s⁻¹
"pE-DGEEELKGC (PEG)-NH2 [79677-1] ([pGlu]DGEEELKGC([maleimide-4‑arm PEG 5 kDa])-NH2; also: 4-arm PEG conjugate, number of peptide copies not given here)",Affinity,[2]; [13],"Intermediate (an affinity of about 10 to 150, preferably 10 to 100 mM is considered of “high” affinity)"
same,"inhibition of cytotoxicity, in vitro potency (FIG. 20)",[4],comparable results among each other
CSCC[C@H](NC(=O)CNC(=O)[C@H](CCCCN)NC(=O)CNC(=O)[C@H](CCSC)NC(=O)[C@H](CCC(=O)O)NC(=O)[C@H](CCC(=O)O)NC(=O)[C@H](CC(N)=O)NC(=O)CNC(=O)[C@H](CC(=O)O)NC(=O)[C@@H](N)CCC(N)=O)C(=O)N[C@@H](CCC(=O)O)C(=O)N[C@@H](CCC(=O)O)C(=O)N[C@@H](CC(N)=O)C(=O)NCC(=O)N[C@@H](CC(=O)O)C(=O)N[C@@H](CCC(N)=O)C(=O)O (H-QDGNEEMGKGMEENGDQ-OH),half-life,[5],3 to 10 min
QDGNEEMG [reference compound],koff,[1],0.0248 s⁻¹
QDGNEEMG-P(Dap)-GMEENGDQ (chain 1 QDGNEEMG-{P(Dap)}; reading uncertain; also: chains linked via Dap residue 'P(Dap)'),Kd,[6],1.1 nM
same,fold-Kd,[6],32.55
same,koff,[1],0.0075 s⁻¹
same,fold-koff,[1],0.30
same,fold-kon,[1],6.36
pE-DGNEELKGK (PEG)-OH ([pGlu]DGNEELKGK-OH; not fully specified (residue 10); printed as pE-DGNEELKGK (PEG)-OH) [73135-2],Affinity,[2]; [12],"High (an affinity indicated as Kd of about 0.05 to about 10 nM, typically 0.1 pM to 10 nM or 500 pM to 5 nM is considered of “high” affinity)"
same,Affinity,[2]; [13],"High (an affinity indicated as Kd of about 0.05 to about 10 nM, typically 0.1 pM to 10 nM or 500 pM to 5 nM is considered of “high” affinity)"
pE-DGEEELKGK (PEG)-OH ([pGlu]DGEEELKGK(PEG 20 kDa)-OH; not fully specified) [79921-1],Affinity,[2]; [13],"Intermediate (an affinity of about 10 to 150, preferably 10 to 100 mM is considered of “high” affinity)"
pE-DGEEELKGK (mPEG)-OH ([pGlu]DGEEELKGK(mPEG)-OH; numbers in words are those of the source; also: Lys side chain linked via thioether to 20 kDa mPEG) [82138-1],Affinity,[2]; [13],"Intermediate (an affinity of about 10 to 150, preferably 10 to 100 mM is considered of “high” affinity)"
pGlu-DGNEELKGC ([pGlu]DGNEELKGC; also: entry DGNEELKGC marks its position 1 as pyroglutamic acid),fast component for the off-rate,[7],0.0212 s⁻¹
same,fast component of the on-rate,[7],2.42e+06 M⁻¹ s⁻¹
same,ka,[8],2.72e+06 M⁻¹ s⁻¹
same,kd,[8],0.0038 s⁻¹
same,ka,[9],2.14e+06 M⁻¹ s⁻¹
same,kd,[9],0.00279 s⁻¹
same,ka,[10],1.88e+06 M⁻¹ s⁻¹
same,kd,[10],0.0024 s⁻¹
same,ka,[11],2e+06 M⁻¹ s⁻¹
same,kd,[11],0.00514 s⁻¹
"pE-DGNEELKGC (PEG)-OH (N-terminal pyroglutamate, 20K PEG on Cys) [71203-2]",Affinity,[2]; [12],"High (an affinity indicated as Kd of about 0.05 to about 10 nM, typically 0.1 pM to 10 nM or 500 pM to 5 nM is considered of “high” affinity)"
same,Affinity,[2]; [13],"High (an affinity indicated as Kd of about 0.05 to about 10 nM, typically 0.1 pM to 10 nM or 500 pM to 5 nM is considered of “high” affinity)"
QDGNEEMGKQDGNEEMG,koff,[1],0.00497 s⁻¹
"QDGNEEMG-K(Nϵ)-GMEENGDQ (chain 1 QDGNEEMGK; also: branched: chains joined through a Lys, chain 2 on Lys Nε, direction not given here)",Kd,[6],1.03 nM
same,fold-Kd,[6],21.65
same,koff,[1],0.00447 s⁻¹
same,fold-koff,[1],0.25
same,fold-kon,[1],5.38
QDGNEEMGGMEENGDQ,koff,[1],0.00471 s⁻¹
pE-DGEEELKGC (PEG)-NH2 [79676-1] ([pGlu]DGEEELKGC(PEG)-NH2; not fully specified; printed as pE-DGEEELKGC (PEG)-NH2; reading uncertain; also: PEG type and size not given here),Affinity,[2]; [13],Intermediote
same,"inhibition of cytotoxicity, in vitro potency (FIG. 20)",[4],comparable results among each other
(QDGNEEMG)3K,koff,[1],0.00016 s⁻¹
CSCC[C@H](NC(=O)CNC(=O)[C@H](CCCCN)NC(=O)CNC(=O)[C@H](CCSC)NC(=O)[C@H](CCC(=O)O)NC(=O)[C@H](CCC(=O)O)NC(=O)[C@H](CC(N)=O)NC(=O)CNC(=O)[C@H](CC(=O)O)NC(=O)[C@@H](N)CCC(N)=O)C(=O)N[C@@H](CCC(=O)O)C(=O)N[C@@H](CCC(=O)O)C(=O)N[C@@H](CC(N)=O)C(=O)NCC(=O)N[C@@H](CC(=O)O)C(=O)N[C@@H](CCC(N)=O)C(=O)N[C@@H](CS)C(=O)O (H-QDGNEEMGKGMEENGDQC-OH; N-terminus and C-terminus assumed),half-life,[5],3 to 10 min
